Laboratory results from ChEMBL document CHEMBL4419178, “Yap1 inhibitors that target the interaction of yap1 with oct4” (2018).
Active and inactive are the calls of the source.

Assays:
[1] = target: Transcriptional coactivator YAP1 (Homo sapiens) (UniProt P46937); experiment: Inhibition of YAP1 in human NCI-H1650 cells assessed as reduction in Sox2 protein expression at 5 uM by Western blot analysis; assay type: cell-based
[2] = target: Transcriptional coactivator YAP1 (Homo sapiens) (UniProt P46937); experiment: Inhibition of YAP1 in human A549 cells assessed as reduction in Sox2 protein expression at 5 uM by Western blot analysis; assay type: cell-based
[3] = target: Transcriptional coactivator YAP1 (Homo sapiens) (UniProt P46937); experiment: Inhibition of YAP1 in human A549 cells assessed as suppression of CCL2 level by cytokine array assay; assay type: cell-based
[4] = target: Transcriptional coactivator YAP1 (Homo sapiens) (UniProt P46937); experiment: Inhibition of YAP1 in human A549 cells assessed as suppression of CXCL1 level by cytokine array assay; assay type: cell-based
[5] = target: Transcriptional coactivator YAP1 (Homo sapiens) (UniProt P46937); experiment: Inhibition of YAP1 in human A549 cells assessed as suppression of CXCL12 level by cytokine array assay; assay type: cell-based
[6] = target: Transcriptional coactivator YAP1 (Homo sapiens) (UniProt P46937); experiment: Inhibition of YAP1 in human A549 cells assessed as suppression of CD40L level by cytokine array assay; assay type: cell-based
[7] = target: Transcriptional coactivator YAP1 (Homo sapiens) (UniProt P46937); experiment: Inhibition of YAP1 in human A549 cells assessed as suppression of ICAM1 level by cytokine array assay; assay type: cell-based
[8] = target: Transcriptional coactivator YAP1 (Homo sapiens) (UniProt P46937); experiment: Inhibition of YAP1 in human A549 cells assessed as suppression of IL1alpha level by cytokine array assay; assay type: cell-based
[9] = target: Transcriptional coactivator YAP1 (Homo sapiens) (UniProt P46937); experiment: Inhibition of YAP1 in human A549 cells assessed as suppression of IL6 level by cytokine array assay; assay type: cell-based
[10] = target: Transcriptional coactivator YAP1 (Homo sapiens) (UniProt P46937); experiment: Inhibition of YAP1 in human A549 cells assessed as suppression of IL8 level by cytokine array assay; assay type: cell-based
[11] = target: Transcriptional coactivator YAP1 (Homo sapiens) (UniProt P46937); experiment: Inhibition of YAP1 in human A549 cells assessed as suppression of IL13 level by cytokine array assay; assay type: cell-based
[12] = target: Transcriptional coactivator YAP1 (Homo sapiens) (UniProt P46937); experiment: Inhibition of YAP1 in human A549 cells assessed as suppression of IL18 level by cytokine array assay; assay type: cell-based
[13] = target: Transcriptional coactivator YAP1 (Homo sapiens) (UniProt P46937); experiment: Inhibition of YAP1 in human A549 cells assessed as suppression of IL32-alpha level by cytokine array assay; assay type: cell-based
[14] = target: Transcriptional coactivator YAP1 (Homo sapiens) (UniProt P46937); experiment: Inhibition of YAP1 in human A549 cells assessed as suppression of MIF level by cytokine array assay; assay type: cell-based
[15] = target: Transcriptional coactivator YAP1 (Homo sapiens) (UniProt P46937); experiment: Inhibition of YAP1 in human A549 cells assessed as suppression of Serpine-E1 level by cytokine array assay; assay type: cell-based
[16] = target: Transcriptional coactivator YAP1 (Homo sapiens) (UniProt P46937); experiment: Inhibition of YAP1 in human A549 cells assessed as suppression of CCL2 level in presence of cancer associated fibroblasts by cytokine array assay; assay type: cell-based
[17] = target: Transcriptional coactivator YAP1 (Homo sapiens) (UniProt P46937); experiment: Inhibition of YAP1 in human A549 cells assessed as suppression of CXCL12 level in presence of cancer associated fibroblasts by cytokine array assay; assay type: cell-based
[18] = target: Transcriptional coactivator YAP1 (Homo sapiens) (UniProt P46937); experiment: Inhibition of YAP1 in human A549 cells assessed as suppression of ICAM1 level in presence of cancer associated fibroblasts by cytokine array assay; assay type: cell-based
[19] = target: Transcriptional coactivator YAP1 (Homo sapiens) (UniProt P46937); experiment: Inhibition of YAP1 in human A549 cells assessed as suppression of IL6 level in presence of cancer associated fibroblasts by cytokine array assay; assay type: cell-based
[20] = target: Transcriptional coactivator YAP1 (Homo sapiens) (UniProt P46937); experiment: Inhibition of YAP1 in human A549 cells assessed as suppression of IL8 level in presence of cancer associated fibroblasts by cytokine array assay; assay type: cell-based
[21] = target: Transcriptional coactivator YAP1 (Homo sapiens) (UniProt P46937); experiment: Inhibition of YAP1 in human A549 cells assessed as suppression of MIF level in presence of cancer associated fibroblasts by cytokine array assay; assay type: cell-based
[22] = target: Transcriptional coactivator YAP1 (Homo sapiens) (UniProt P46937); experiment: Inhibition of YAP1 in human A549 cells assessed as suppression of Serpine-E1 level in presence of cancer associated fibroblasts by cytokine array assay; assay type: cell-based
[23] = tested on: NCI-H1650; experiment: Inhibition of self-renewal capacity in cisplatin insensitive stem-like side-population cells of human NCI-H1650 cells assessed as reduction in number of spheres at 2 uM incubated for 5 days after 7 days cisplatin exposure by sphere formation assay; assay type: functional, cell-based
[24] = target: Transcriptional coactivator YAP1 (Homo sapiens) (UniProt P46937); experiment: Inhibition of YAP1 in human NCI-H1650 cells assessed as suppression of HK2 mRNA expression at 5 to 10 uM incubated for 72 hrs by RT-PCR method; assay type: cell-based
[25] = target: Transcriptional coactivator YAP1 (Homo sapiens) (UniProt P46937); experiment: Inhibition of YAP1 in human NCI-H1650 cells assessed as suppression of PDK2 mRNA expression at 5 to 10 uM incubated for 72 hrs by RT-PCR method; assay type: cell-based
[26] = target: Transcriptional coactivator YAP1 (Homo sapiens) (UniProt P46937); experiment: Inhibition of YAP1 in human NCI-H1703 cells assessed as suppression of HK2 mRNA expression at 5 to 10 uM incubated for 72 hrs by RT-PCR method; assay type: cell-based
[27] = target: Transcriptional coactivator YAP1 (Homo sapiens) (UniProt P46937); experiment: Inhibition of YAP1 in human NCI-H1703 cells assessed as suppression of PDK2 mRNA expression at 5 to 10 uM incubated for 72 hrs by RT-PCR method; assay type: cell-based
[28] = target: Transcriptional coactivator YAP1 (Homo sapiens) (UniProt P46937); experiment: Inhibition of YAP1 in human NCI-H146 cells assessed as suppression of HK2 mRNA expression at 5 to 10 uM incubated for 72 hrs by RT-PCR method; assay type: cell-based
[29] = target: Transcriptional coactivator YAP1 (Homo sapiens) (UniProt P46937); experiment: Inhibition of YAP1 in human NCI-H146 cells assessed as suppression of PDK2 mRNA expression at 5 to 10 uM incubated for 72 hrs by RT-PCR method; assay type: cell-based
[30] = target: Transcriptional coactivator YAP1 (Homo sapiens) (UniProt P46937); experiment: Inhibition of YAP1 in human NCI-H1650 cells assessed as suppression of PD-L1 mRNA expression at 5 to 10 uM incubated for 72 hrs by RT-PCR method; assay type: cell-based
[31] = target: Transcriptional coactivator YAP1 (Homo sapiens) (UniProt P46937); experiment: Inhibition of YAP1 in human NCI-H1703 cells assessed as suppression of PD-L1 mRNA expression at 5 to 10 uM incubated for 72 hrs by RT-PCR method; assay type: cell-based

Measured: inhibition

Sequence of Transcriptional coactivator YAP1 (Homo sapiens) (P46937 whole entry): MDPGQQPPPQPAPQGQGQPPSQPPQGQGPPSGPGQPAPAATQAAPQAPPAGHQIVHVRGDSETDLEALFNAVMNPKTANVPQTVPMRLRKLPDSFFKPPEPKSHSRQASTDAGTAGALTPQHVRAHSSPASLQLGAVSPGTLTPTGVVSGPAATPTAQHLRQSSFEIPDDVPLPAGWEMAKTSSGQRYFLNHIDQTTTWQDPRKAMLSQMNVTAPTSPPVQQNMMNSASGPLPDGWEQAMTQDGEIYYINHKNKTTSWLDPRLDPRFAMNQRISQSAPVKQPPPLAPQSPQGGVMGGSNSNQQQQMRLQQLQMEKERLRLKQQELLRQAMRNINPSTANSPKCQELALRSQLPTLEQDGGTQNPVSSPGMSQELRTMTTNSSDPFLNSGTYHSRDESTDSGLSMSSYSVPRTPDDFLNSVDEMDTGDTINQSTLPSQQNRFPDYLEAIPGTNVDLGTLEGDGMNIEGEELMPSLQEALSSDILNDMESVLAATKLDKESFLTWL

COC(=O)[C@H](Cc1ccc(OCc2ccccc2)cc1)NC(=O)CC1CCN(C(=O)CCc2ccc(C#N)cc2)CC1
not listed: [23] | [24] | [25] | [26] | [27] | [28] | [29] | [30] | [31]
active: all other assays above

COC(=O)[C@H](Cc1ccc(OCc2ccccc2)cc1)NC(=O)CC1CCN(C(=O)CCc2ccc(Cl)c(Cl)c2)CC1
active: [23] | [24] | [25] | [26] | [27] | [28] | [29] | [30] | [31]
